Laboratory results taken from paper PMC7114565 (Virus Research, 2016).
Values joined by “and” are separate entries in the source; they are usually repeats but may differ in a detail not shown here. Equal entries are not always repeated. “Also recorded” adds a separate entry of the source.

How the values were obtained:
MERS-CoV EMC/2012 [1] = format: cell-based
SARS-CoV = format: cell-based
[2] = system: murine hepatitis virus (MHV; strain A59); format: cell-based
[3] = system: human coronavirus 229E (HCoV-229E); format: cell-based
MERS-CoV EMC/2012 [4] = system: MERS-CoV EMC/2012
HCoV-NL63 = conditions: cited from earlier work
in vitro [5] = conditions: rhesus monkey
in vitro [6] = conditions: mouse
MERS-CoV EMC/2012 [7] = experiment: microbe, parasite or virus in culture; conditions: Middle East respiratory syndrome-related coronavirus, Huh-7, 48 h

SMILES	effect on cell viability (LLC-MK2 cells)	decrease in MERS-CoV progeny titer (MERS-CoV EMC/2012 [1])	reduction of MERS-CoV progeny titer (MERS-CoV EMC/2012 [1]) [log]	effect on SARS-CoV infection (SARS-CoV)	reduction in SARS-CoV virus progeny (SARS-CoV) [log]	decrease of MHV progeny titers [2] [log]	reduction of MHV progeny titers [2] [log]	reduction of HCoV-229E production [3]	CC50 values times higher than the observed EC50 values (MERS-CoV EMC/2012 [4])	EC50 (HCoV-NL63) [µM]	reduction in HCoV-NL63 virus progeny (HCoV-NL63) [log]	CC50 (in vitro [5]) [µM]	viability (in vitro [6]) [%]	EC50 (MERS-CoV EMC/2012 [7]) [µM]
NC(=O)c1ncn([C@@H]2O[C@H](CO)[C@@H](O)[C@H]2O)n1 [ribavirin]	gradually lowered the cell viability													
C/C=C/C[C@@H](C)[C@@H](O)[C@H]1C(=O)N[C@@H](CC)C(=O)N(C)[C@H](C)C(=O)N(CC)[C@@H](C(C)C)C(=O)N[C@@H](C(C)C)C(=O)N(C)[C@@H](CC(C)C)C(=O)N[C@@H](C)C(=O)N[C@H](C)C(=O)N(C)[C@@H](CC(C)C)C(=O)N(C)[C@@H](CC(C)C)C(=O)N(C)[C@@H](C(C)C)C(=O)N1C [ALV, alisporivir]		comparable decrease in progeny titer	~2	sensitive; also recorded: near-complete block	~1.5	1	~2	~1.5 log and ~2 log	7–13 times	0.8	4	14.3 ± 1.8	> 85	3.4 ± 1
